# Source: patent publication US20120277209A1, “PYRAZINE COMPOUNDS AS PHOSPHODIESTERASE 10 INHIBITORS” (Amgen Inc., priority 2009, published 2012)
# Biological target: PDE10 (UniProt Q9Y233)
# Assay: PDE10 enzyme inhibition, IMAP TR-FRET assay (MPDE10A7 Enzyme Activity and Inhibition)
# Assay type: biochemical
# Conditions: IC50 class against PDE10; read-out: IC50
# Description: All compounds were divided in five classes based on their IC50 values against PDE10. The range of the IC50 in each class is as follows:
# An IMAP TR-FRET assay was used to analyze the enzyme activity (Molecular Devices Corp., Sunnyvale Calif.). 5 μL of serial diluted PDE10A (BPS Bioscience, San Diego, Calif.) or tissue homogenate was incubated with equal volumes of diluted fluorescein labeled cAMP or cGMP for 60 min in 384-well polystyrene assay plates (Corning, Corning, N.Y.) at room temperature. After incubation, the reaction was stopped by adding 60 μL of diluted binding reagents and was incubated for 3 hours to overnight at room temperature. The plates were read on an Envision (Perkin Elmer, Waltham, Mass.) for time resolved fluorescence resonance energy transfer. The data were analyzed with GraphPad Prism (La Jolla, Calif.).
# Enzyme Inhibition. To check the inhibition profile, 5 μL of serial diluted compounds were incubated with 5 μL of diluted PDE10 enzyme (BPS Bioscience, San Diego, Calif.) or tissue homogenate in a 384-well polystyrene assay plate (Corning, Corning, N.Y.) for 30 min at room temperature. After incubation, 10 μL of diluted fluorescein labeled cAMP or cGMP substrate were added and incubated for 60 min at room temperature. The reaction was stopped by adding 60 μL of diluted binding reagents and plates were read on an Envision (Perkin Elmer, Waltham, Mass.) for time resolved fluorescence resonance energy transfer. The data were analyzed with GraphPad Prism (La Jolla, Calif.).
# The tabulated IC50 data represent an average IC50 data for each compound.
row,IC50 [nM],SMILES
1,25 to 100,"COc1cncc(-c2nccnc2Oc2ccc(Nc3nc4ccccc4s3)cc2)c1 [Example 156, N-(4-(3-(5-methoxypyridin-3-yl)pyrazin-2-yloxy)phenyl)benzo[d]thiazol-2-amine]"
2,< 25,"Fc1ccc2sc(Nc3ccc(Oc4nccnc4C4CCOCC4)cc3)nc2c1 [Example 218, 5-fluoro-N-(4-(3-(tetrahydro-2H-pyran-4-yl)pyrazin-2-yloxy)phenyl)benzo[d]thiazol-2-amine]"
3,< 25,"CC(=O)N1CCC(c2nccnc2Oc2ccc(C(=O)c3nc4ccccc4[nH]3)cc2)C1 (stereo not drawn) [Example 240, 1-(3-(3-(4-(1H-benzo[d]imidazole-2-carbonyl)phenoxy)pyrazin-2-yl)pyrrolidin-1-yl)ethanone]"
4,25 to 100,"COc1cnccc1-c1nccnc1Oc1ccc(C(=O)c2nc3ccccc3[nH]2)cc1 [Example 113, (1H-benzo[d]imidazol-2-yl)(4-(3-(3-methoxypyridin-4-yl)pyrazin-2-yloxy)phenyl)methanone]"
5,< 25,"COCC(=O)N1CCC(c2nccnc2Oc2ccc(Nc3nc4ccccc4s3)cc2)CC1 [Example 233, 1-(4-(3-(4-(benzo[d]thiazol-2-ylamino)phenoxy)pyrazin-2-yl)piperidin-1-yl)-2-methoxyethanone]"
6,< 25,"CC(C)(O)[C@@H]1CCCN1c1nccnc1Oc1ccc(Nc2nc3ccccc3s2)cc1 [Example 59, (S)-2-(1-(3-(4-(BENZO[D]THIAZOL-2-YLAMINO)PHENOXY)PYRAZIN-2-YL)PYRROLIDIN-2-YL)PROPAN-2-OL]"
7,1000 to 5000,"CCCOc1nccnc1Oc1ccc(C(=O)c2nc3ccccc3[nH]2)cc1 [Example 180, (1H-benzo[d]imidazol-2-yl)(4-(3-propoxypyrazin-2-yloxy)phenyl)methanone]"

# Same assay, conditions: PDE10 enzyme inhibition; average IC50 data for each compound; read-out: Average IC50
row,SMILES,IC50 [nM]
1,O=C(c1ccc(Oc2nccnc2N2CCC(N3CCOCC3)CC2)cc1)c1nc2ccccc2[nH]1,27
2,Fc1ccc2nc(Nc3ccc(Oc4nccnc4Cl)cc3)sc2c1 [drawing 833],538
3,COc1cccc(-c2nccnc2Oc2ccc(Nc3nc4ccccc4s3)cc2)c1 [drawing 740],96.1
4,O=C(c1ccc(Oc2nccnc2OCC2CC2)cc1)c1nc2ccccc2[nH]1 [drawing 846],164
5,Fc1cccc2nc(Nc3ccc(Oc4cnccn4)cc3)sc12 [drawing 880],803
6,CC#CCOc1nccnc1Oc1ccc(C(=O)c2nc3ccccc3[nH]2)cc1 [drawing 852],673

# More lines, now with the values ahead:
row,IC50 [nM],SMILES
1,26.2,CC(C)COc1nccnc1Oc1ccc(C(=O)c2nc3ccccc3[nH]2)cc1 [drawing 845]
2,14.6,Clc1ccc(-c2nccnc2Oc2ccc(Nc3nc4ccccc4s3)cc2)cn1 [drawing 794]
3,11.8,CN(c1ccc(Oc2nccnc2C2CCOCC2)cc1)c1nc2ccccc2s1 [drawing 870]
4,11.3,Cc1ccc(-c2nccnc2Oc2ccc(Nc3nc4ccccc4s3)cc2)cn1 [drawing 764]
5,7.76,COc1ncccc1-c1nccnc1Oc1ccc(Nc2nc3cccc(F)c3s2)cc1 [drawing 950]
6,6.94,O=C(c1ccc(Oc2nccnc2N2CC(O)C2)cc1)c1nc2ccccc2[nH]1
7,5.56,O=C(c1ccc(Oc2nccnc2OCC2CCOC2)cc1)c1nc2ccccc2[nH]1 (stereo not drawn) [drawing 854]
8,1.76,O=C(c1ccc(Oc2nccnc2C2CCCC2)cc1)c1nc2ccccc2[nH]1 [drawing 949]
9,1.16,O=C(c1ccc(Oc2nccnc2[C@@H]2CCC[C@H](O)C2)cc1)c1nc2ccccc2[nH]1 [drawing 907]
10,1.02,O=C(c1ccc(Oc2nccnc2[C@@H]2CCC[C@H](O)C2)cc1)c1nc2ccccc2[nH]1 (stereo in doubt)
11,0.186,COc1cccc2nc(Nc3ccc(Oc4nccnc4C4CCOCC4)cc3)[nH]c12 [drawing 941]
12,0.156,C[C@H](F)C(=O)N1CCC(c2nccnc2Oc2ccc(Nc3nc4ccccc4s3)cc2)CC1 [drawing 979]
13,0.132,C[C@@H](F)C(=O)N1CCC(c2nccnc2Oc2ccc(C(=O)c3nc4ccccc4[nH]3)cc2)CC1 (stereo in doubt)
14,0.059,CC(=O)N1CCC(c2nccnc2Oc2ccc(Nc3nc4ccccc4s3)cc2)CC1 [drawing 893]
